Data on 2 compounds can be found in patent publication US9969695B2, “N-substituted imidazole carboxylic ester chiral compound containing an ether side chain, its preparation and application” (WEST CHINA HOSPITAL, SICHUAN UNIVERSITY, priority 2013, dated 2018).

The subject of data set [1] is Male SD rats. Kind of data set: ED50 by the sequential method, extinction of rat body-righting reflex. It counts as in vivo. The conditions noted are these: etomidate as Etomidate-Lipuro, extinction of body-righting reflex ≥30 s; for ED50: Rattus norvegicus, read-out: 50% effective dose (ED50). As for the experimental part:
(§1) Male SD rats (250˜300 g) were used as an experimental animal, and 50% effective dose (ED50) was determined by the sequential method. Three compounds were dissolved in a solvent of DMSO, and etomidate was used as the commercially-available formulation (B BRAUN, Etomidate-Lipuro®, 20 mg/10 mL). Based on the initial dose of 1 mg/kg, other dosages were adjusted as the ratio of 0.8, and the ED50 values of the three compounds and etomidate were determined. Extinction time ≥30 s for the rat body-righting reflex was the positive marker while no disappearance of the righting reflex was considered invalid. Based on the experimental results, four cross-points were formed, and the ED50 values were calculated. […] Then, the respective 2ED50 values of the three compounds and etomidate were taken in an equivalent dose, which were administered via the rat tail vein. The preliminary effects were evaluated in the four rat groups, which were given the three compounds of Formulas (I), (IV), (V) and etomidate, respectively, with 10 rats in each group. […] The last time of the Formula (I) compound and etomidate was 5-6 min, but the last time of the Formulas (IV) and (V) compounds was 10-20 min. […] DMSO had no pharmacological effects, and no adverse effects were observed. The onset time, the last time, and the adverse effects (types, incidence rates) induced by the three compounds and etomidate are shown in the following table:
(§2) Male SD rats (250˜300 g) were used as an experimental animal, and 50% effective dose (ED50) was determined by the sequential method. Hydrochlorides of the three compounds were dissolved in the solvent of normal saline, and etomidate was used as the commercially-available formulation (B BRAUN, Etomidate-Lipuro®, 20 mg/10 mL). The initial dose was 1 mg/kg, and the ratio of dosage variation was 0.8, which was applied in the determination of ED50 values of Formula (I) hydrochloride, Formula (I) hydrobromide, Formula (I) trifluoroacetate, and etomidate. Extinction time (≥30 s) of the rat body-righting reflex was the positive marker while no disappearance of the reflex was considered invalid. Based on the experimental results, four cross-points were formed, and then ED50 values were calculated. […] Then, the respective 2ED50 values of the three compounds and etomidate were taken in an equivalent dose, which were administered via the rat tail vein. The preliminary effects were evaluated in the four rat groups, which were given the three compounds of Formulas (I) hydrochloride, Formula (I) hydrobromide, Formula (I) trifluoroacetate, and etomidate, respectively, with 10 rats in each group. […] Palinesthesia time was in arrange of 5-10 min. During the test period, no significant difference was found in the types and the incidence rates of adverse effects in each group. DMSO had no pharmacological effects, and no adverse effect was found. The onset time, the last time, and the types and the incidence rates of adverse effects induced by the three salt compounds and etomidate are shown in the following table: […]

Data set [2] deals with Male SD rats. Kind of data set: Onset time, last time, palinesthesia time and adverse effects at 2ED50 via the rat tail vein. It counts as in vivo. The conditions noted are these: for Incidence of adverse effect: Muscle tremor / Onset time: 10 rats per group; for Last time: disappearance to recovery of body-righting reflex. As for the experimental part:
as §1, §2

For data set [3], the system named is self-synthesis of adrenocortical hormone. The experiment in a line: Increase degree of cortical hormone (cortisol, corticosterone) in blood serum after ACTH stimulation, ELISA. It counts as in vivo. The conditions noted are these: Beagle dogs; for Increase degree of corticosterone / Increase degree of cortisol: 2ED50, dexamethasone baseline, 1 h after ACTH. As to the method: Male Beagle dogs (10±2 kg) were selected as an experimental animal. After administration, the contents of corticosterone and cortisol in the blood serum of the Beagle dogs were determined by the ELISA kit and the enzyme-labelled instrument. The 20 Beagle dogs were divided into five groups, with four dogs in each group. After respective administration of dexamethasone (0.01 mg/kg), the level of adrenal cortex in the dog body was lowered to the baseline, and those levels of corticosterone and cortisol at this time were used as the base value (baseline). […] After 10 min, ACTH (adrenocortical hormone) was given to stimulate and cause an increased level of cortex in the dog body. One hour after administration of ACTH, both corticosterone and cortisol levels in the blood serum of the Beagle dogs were determined, and the ratio of the peak value to the base value of the cortex levels was calculated. This ratio indicated the increase degree of the cortical hormone. A greater degree indicated a less inhibitory effect of the medicine on the cortical hormone. After administration, compounds of Formulas (I), (IV) and (V), DMSO, and the increase degree of the cortical hormone followed by stimulation of ACTH are shown in the following table:
Male Beagle dogs (10±2 kg) were selected as an experimental animal. After administration, the contents of corticosterone and cortisol in the blood serum of the Beagle dogs were determined by the ELISA kit and the enzyme-labelled instrument. The 20 Beagle dogs were divided into five groups, with four dogs in each group. After respective administration of dexamethasone (0.01 mg/kg), the level of adrenal cortex in the dog body was lowered to the baseline, and the levels of corticosterone and cortisol at this time were used as the baseline. Then, the equivalent doses (2ED50) of the compounds of Formula (I) hydrochloride (3.62 mg/kg), hydrobromide (3.86 mg/kg), trifluoroacetate (4.66 mg/kg), the positive control medicine Etomidate-Lipuro® (0.9 mg/kg), and the equal-volume of solvent DMSO were respectively administrated into the dogs of the five groups. After 10 min, ACTH was given to stimulate and cause the cortex levels increase in the dog body. One hour after administration of ACTH, both the cortical hormone levels were determined, and the ratio of the peak value to the baseline of cortex levels was calculated. This ratio indicated the increase degree of the cortical hormone. A greater degree of increase indicated a less inhibitory effect of the medicine on the cortical hormone. After administrations, the three salts of the Formula (I) compound, DMSO, the increase degree of the cortical hormone followed by stimulation of ACTH are shown in the following table: […]

The conditions of data set [4]: after one intravenous bolus of etomidate 3 mg/kg, cited from earlier work.
Another data set has as its system 11β-hydroxylase. The conditions noted are these: 11β-hydroxylase versus GABAA; cited from earlier work.
[5] abbreviates: Example 9, 2ED50 via tail vein, listed as etomidate.
Setting [6] is: Example 9, 2ED50 via tail vein, recovery to full recovery of body-righting reflex.
Where [7] appears, read: Example 10, ratio of peak value to base value.
[8] abbreviates: Example 11, ratio of peak value to baseline.
The mark [9] stands for this setting: Example 9, 2ED50 via tail vein, listed as Formula (I) trifluoroacetate.

Molecules are shown by their SMILES. Where two headings read alike, the source gives them in different places.

On to `CCOC(=O)c1cncn1[C@H](C)c1ccccc1` [Etomidate, reference compound], for which the ED50 in the data set on Male SD rats [1] (Example 8, compounds in DMSO) stood at 1.14 mg/kg; in the data set on Male SD rats [1] (Example 9, salts in normal saline), 1.06 mg/kg. Besides, the “sedative-hypnotic and general anesthetic effects (conclusion in words)” value in the data set on Male SD rats [2] (Example 8) was “good sedative-hypnotic and general anesthetic effects”; with Male SD rats [2] (Example 9), “good sedative-hypnotic and general anesthetic effects”. Besides, the “Incidence of adverse effect: Muscle tremor” value is listed as 70% in the data set on Male SD rats [2] (Example 8, 2ED50 via tail vein) and 60% in the data set with Male SD rats [2] (Example 9, 2ED50 via tail vein). Besides, the Onset time entry in the data set with Male SD rats [2] (Example 8, 2ED50 via tail vein) is “Immediate”; in the data set with Male SD rats [2] (Example 8, 2ED50 via tail vein, listed as etomidate) it was “immediate action”; in the data set with Male SD rats [2] (Example 9, 2ED50 via tail vein), “Immediate”; with Male SD rats [2] (setting [5]), “immediate action”. The Last time was 6.1 ± 1.3 min with Male SD rats [2] (Example 8, 2ED50 via tail vein); 5.9 ± 1.5 min in the data set with Male SD rats [2] (Example 9, 2ED50 via tail vein); 4 to 8 min with Male SD rats [2] (setting [5]). The Palinesthesia tune in the data set with Male SD rats [2] (Example 8, 2ED50 via tail vein, recovery to full recovery of body-righting reflex) came out at 4.5 ± 1.2 min. The same compound displayed a Palinesthesia time in the data set with Male SD rats [2] (setting [6]) of 5.1 ± 1.3 min. The results for the “Increase degree of corticosterone” value in data set [3] (setting [7]) and in data set [3] (setting [8]) were 2.53 ± 0.65 and 2.80 ± 0.76, respectively. Further, the “Increase degree of cortisol” value in data set [3] (setting [7]) is reported as 2.12 ± 0.56; in data set [3] (setting [8]), 2.46 ± 0.87. Moreover, the “inhibition on cortical hormone (conclusion in words)” value in data set [3] (Example 10, after stimulation by ACTH) was “significantly inhibit the self-synthesis of adrenocortical hormone”. For the same compound, in data set [3] (Example 11), the “cortical hormone increase after stimulation by ACTH (conclusion in words)” value is “significantly suppress the self-synthesis of adrenocortical hormone”. Further, the “time for the plasma medicine concentration maintaining” value in data set [4] is given as 8 min. Besides, the “time of plasma medicine concentration maintaining above 8 ng/mL” value in data set [4] is given as “up to 8 h”. Further, in data set [4] (plasma), the “minimal effective concentration for inhibition of cortical hormone synthesis” value was 8 ng/mL. Further, the “minimal effective concentration of anesthetic effect” value in data set [4] (plasma) is 110 ng/mL. For the same compound, the “ability of binding to 11β-hydroxylase relative to binding to GABAA acceptor” value in the data set with 11β-hydroxylase is on record as 100 times.

`COCCOC(=O)c1cncn1[C@H](C)c1ccccc1` [Trifluoroacetate of Formula (I) compound]: the “50% effective dose (ED50)” value in the data set on Male SD rats [1] (Example 9, salts in normal saline, listed as Formula (I) trifluoroacetate) came to 3.61 mg/kg. For the same compound, in the data set on Male SD rats [2] (Example 9), the “sedative-hypnotic and general anesthetic effects (conclusion in words)” value is “good sedative-hypnotic and general anesthetic effects”. For the same compound, in the data set on Male SD rats [2] (Example 9, 2ED50 via tail vein), the “Incidence of adverse effect: Muscle tremor” value was “(5/10), 50%”; the Onset time result was “Immediate”; the Last time came to 3.6 ± 1.3 min. Moreover, in the data set with Male SD rats [2] (setting [9]), the Onset time entry is reported as “immediate action” and the Last time fell in the range of 4 to 7 min. This compound showed a Palinesthesia time in the data set on Male SD rats [2] (setting [6]) of 8.2 ± 3.3 min. Moreover, the “cortical hormone increase after stimulation by ACTH (conclusion in words)” value in data set [3] (Example 11) is “lower than that in the blank group of the dogs, but obviously higher than that in the positive medicine etomidate group of the dogs”. Also, in data set [3] (setting [8]), the “Increase degree of corticosterone” value amounted to 13.64 ± 4.22 and the “Increase degree of cortisol” value was found to be 26.14 ± 13.89.
